Data reported in patent publication US20140303164A1, “THERAPEUTIC COMPOUNDS” (Gilead Sciences, Inc., priority 2013, published 2014).

Assays:
[1] = Test B: Cytotoxicity Assay; assay type: cell-based; conditions: human, uninfected MT-4 cells, same protocol as Test A
Method in brief: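 Uninfected MT-4 cells (2000 per well) incubated with diluted compound at 37° C. for 5 days, following the antiviral protocol without HIV-IIIb.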

HIV-IIIb = assay: Test A: Antiviral Assay in MT4 Cells; assay type: cell-based, HIV-1; conditions: Human immunodeficiency virus 1, IIIB, MT4, 120 h; for inhibition at 0.2 µM: read-out: % inhibition at 0.2 μM; for inhibition at 2 µM: read-out: % inhibition at 2 μM
Experimental: Test A: Antiviral Assay in MT4 Cells
MT-4 cells were next mixed with HIV-IIIb at an m.o.i of 0.003 for 1 hour, after which time 35 μL of virus/cell mixture (2000 cells) was immediately added to each well containing 40 μL of diluted compound. The plates were then incubated at 37° C. for 5 days. […] Cell lysis was carried out by incubating at room temperature for 10 min and then chemiluminescence was read.

Row | SMILES | CC50 at 5 days [1] | inhibition at 0.2 µM (HIV-IIIb) | inhibition at 2 µM (HIV-IIIb)
1 | CCNc1nn(C)c2c(-c3ccc(C#CC(C)(C)O)nc3[C@H](Cc3cc(F)cc(F)c3)NC(=O)Cn3nc(C(F)F)c4c3C(F)(F)[C@@H]3C[C@H]43)ccc(Cl)c12 [Compound 91E, N—((S)-1-(3-(4-chloro-3-(ethylamino)-1-methyl-1H-indazol-7-yl)-6-(3-hydroxy-3-methylbut-1-yn-1-yl)pyridin-2-yl)-2-(3,5-difluorophenyl)ethyl)-2-((3b-S,4aR)-3-(difluoromethyl)-5,5-difluoro-3b,4,4a,5-tetrahydro-1H-cyclopropa[3,4]cyclopenta[1,2-c]pyrazol-1-yl)acetamide] | 9.38 µM | 100% | 100%
2 | CC(C)C(C)(O)C#Cc1ccc(-c2cccc3c(NS(C)(=O)=O)nn(C)c23)c([C@H](Cc2cc(F)cc(F)c2)NC(=O)Cn2nc(C(F)(F)F)c3c2C(F)(F)[C@@H]2C[C@H]32)n1 (stereo partly drawn) [Compound 62, 2-((3bS,4aR)-5,5-difluoro-3-(trifluoromethyl)-3b,4,4a,5-tetrahydro-1H-cyclopropa[3,4]cyclopenta[1,2-c]pyrazol-1-yl)-N-((1S)-2-(3,5-difluorophenyl)-1-(6-(3-hydroxy-3,4-dimethylpent-1-yn-1-yl)-3-(1-methyl-3-(methylsulfonamido)-1H-indazol-7-yl)pyridin-2-yl)ethyl)acetamide] | 5.7 µM | 100% | 100%
3 | Cn1nc(NS(C)(=O)=O)c2c(Cl)ccc(-c3ccc(C#CC(C)(C)O)nc3[C@H](Cc3cc(F)cc(F)c3)NC(=O)Cn3nc(Cl)c4c3CCCC4)c21 [Compound 126, (S)—N-(1-(3-(4 chloro-1-methyl-3-(methylsulfonamido)-1H-indazol-7-yl)-6-(3-hydroxy-3-methylbut-1-yn-1-yl)pyridin-2-yl)-2-(3,5-difluorophenyl)ethyl)-2-(3-chloro-4,5,6,7-tetrahydro-1H-indazol-1-yl)acetamide] | 15.5 µM | 92% | 92%
4 | CC(=O)Nc1nn(C)c2c(-c3ccc(C#CC(C)(C)O)nc3[C@H](Cc3cc(F)cc(F)c3)NC(=O)Cn3nc(C(F)F)c4c3C(F)(F)[C@@H]3C[C@H]43)ccc(Cl)c12 [Compound 94, N—((S)-1-(3-(3-acetamido-4-chloro-1-methyl-1H-indazol-7-yl)-6-(3-hydroxy-3-methylbut-1-yn-1-yl)pyridin-2-yl)-2-(3,5-difluorophenyl)ethyl)-2-((3b-S,4aR)-3-(difluoromethyl)-5,5-difluoro-3b,4,4a,5-tetrahydro-1H-cyclopropa[3,4]cyclopenta[1,2-c]pyrazol-1-yl)acetamide] | 7.58 µM | 100% | 100%
5 | Cn1nc(NS(C)(=O)=O)c2c(Cl)ccc(-c3ccc(C#CC(C)(C)O)nc3[C@H](Cc3cc(F)cc(F)c3)NC(=O)Cn3nc(C(F)F)c4c3C3CC3CC4)c21 (stereo partly drawn) [Compound 83, N—((S)-1-(3-(4-chloro-1-methyl-3-(methylsulfonamido)-1H-indazol-7-yl)-6-(3-hydroxy-3-methylbut-1-yn-1-yl)pyridin-2-yl)-2-(3,5-difluorophenyl)ethyl)-2-(3-(difluoromethyl)-5,5a,6,6a-tetrahydrocyclopropa[g]indazol-1(4H)-yl)acetamide] | 9.94 µM | 94% | 94%
6 | Cn1nc(NC(=O)CNC2CC2)c2c(Cl)ccc(-c3ccc(C#CC(C)(C)O)nc3[C@H](Cc3cc(F)cc(F)c3)NC(=O)Cn3nc(C(F)F)c4c3C(F)(F)[C@@H]3C[C@H]43)c21 [Compound 102, N—((S)-1-(3-(4-chloro-3-(2-(cyclopropylamino)acetamido)-1-methyl-1H-indazol-7-yl)-6-(3-hydroxy-3-methylbut-1-yn-1-yl)pyridin-2-yl)-2-(3,5-difluorophenyl)ethyl)-2-((3b-S,4aR)-3-(difluoromethyl)-5,5-difluoro-3b,4,4a,5-tetrahydro-1H-cyclopropa[3,4]cyclopenta[1,2-c]pyrazol-1-yl)acetamide] | 5.82 µM | 100% | 100%
7 | Cn1nc(NS(C)(=O)=O)c2c(Cl)ccc(-c3ccc(C#CC(C)(C)O)nc3[C@H](Cc3cc(F)cc(F)c3)NC(=O)Cn3nc(N)c4c3C(F)(F)[C@@H]3C[C@H]43)c21 [Compound 148B, 2-((3bS,4aR)-3-amino-5,5-difluoro-3b,4,4a,5-tetrahydro-1H-cyclopropa[3,4]cyclopenta[1,2-c]pyrazol-1-yl)-N—((S)-1-(3-(4-chloro-1-methyl-3-(methylsulfonamido)-1H-indazol-7-yl)-6-(3-hydroxy-3-methylbut-1-yn-1-yl)pyridin-2-yl)-2-(3,5-difluorophenyl)ethyl)acetamide] | 23.3 µM | 83% | 83%
8 | Cn1nc(N)c2cccc(-c3ccc(C#CC(C)(C)O)nc3[C@H](Cc3cc(F)cc(F)c3)NC(=O)Cn3nc(C(F)F)c4c3C(F)(F)CCC4(F)F)c21 [Compound 31, (S)—N-(1-(3-(3-amino-1-methyl-1H-indazol-7-yl)-6-(3-hydroxy-3-methylbut-1-yn-1-yl)pyridin-2-yl)-2-(3,5-difluorophenyl)ethyl)-2-(3-(difluoromethyl)-4,4,7,7-tetrafluoro-4,5,6,7-tetrahydro-1H-indazol-1-yl)acetamide] | 8.03 µM | 89% | 89%
9 | Cn1nc(NS(C)(=O)=O)c2c(C(F)F)ccc(-c3ccc(C#CC(C)(C)O)nc3[C@H](Cc3cc(F)cc(F)c3)NC(=O)Cn3nc(C(F)F)c4c3C(F)(F)[C@@H]3C[C@H]43)c21 [Compound 155I, N—((S)-1-(3-(4-(difluoromethyl)-1-methyl-3-(methylsulfonamido)-1H-indazol-7-yl)-6-(3-hydroxy-3-methylbut-1-yn-1-yl)pyridin-2-yl)-2-(3,5-difluorophenyl)ethyl)-2-((3b-S,4aR)-3-(difluoromethyl)-5,5-difluoro-3b,4,4a,5-tetrahydro-1H-cyclopropa[3,4]cyclopenta[1,2-c]pyrazol-1-yl)acetamide] | 26.8 µM | 99% | 99%
10 | CCn1nc(N)c2cccc(-c3ccc(C#CC(C)(C)O)nc3[C@H](Cc3cc(F)cc(F)c3)NC(=O)Cn3nc(C(F)(F)F)c4c3C(F)(F)[C@@H]3C[C@H]43)c21 [Compound 45G, N—((S)-1-(3-(3-amino-1-ethyl-1H-indazol-7-yl)-6-(3-hydroxy-3-methylbut-1-yn-1-yl)pyridin-2-yl)-2-(3,5-difluorophenyl)ethyl)-2-((3b-S,4aR)-5,5-difluoro-3-(trifluoromethyl)-3b,4,4a,5-tetrahydro-1H-cyclopropa[3,4]cyclopenta[1,2-c]pyrazol-1-yl)acetamide] | 10.4 µM | 92% | 92%
11 | Cn1nc(NS(C)(=O)=O)c2c(Cl)ccc(-c3cc(-c4ccccc4Cl)cnc3[C@H](Cc3cc(F)cc(F)c3)NC(=O)Cn3nc(C(F)F)c4c3C(F)(F)[C@@H]3C[C@H]43)c21 [Compound 181C, N—((S)-1-(3-(4-chloro-1-methyl-3-(methylsulfonamido)-1H-indazol-7-yl)-5-(2-chlorophenyl)pyridin-2-yl)-2-(3,5-difluorophenyl)ethyl)-2-((3b-S,4aR)-3-(difluoromethyl)-5,5-difluoro-3b,4,4a,5-tetrahydro-1H-cyclopropa[3,4]cyclopenta[1,2-c]pyrazol-1-yl)acetamide] | > 53.2 µM | 100% | 100%
12 | Cn1nc(N)c2cccc(-c3ccc(C#CC(C)(C)O)nc3[C@H](Cc3cc(F)cc(F)c3)NC(=O)Cn3nc(C(F)F)c4c3C3CC3CC4)c21 (stereo partly drawn) [Compound 34, N—((S)-1-(3-(3-amino-1-methyl-1H-indazol-7-yl)-6-(3-hydroxy-3-methylbut-1-yn-1-yl)pyridin-2-yl)-2-(3,5-difluorophenyl)ethyl)-2-(3-(difluoromethyl)-5,5a,6,6a-tetrahydrocyclopropa[g]indazol-1(4H)-yl)acetamide] | 8.76 µM | 78% | 78%
13 | CC(C)(O)C#Cc1ccc(-c2cccn3c(NCC(F)(F)F)nnc23)c([C@H](Cc2cc(F)cc(F)c2)NC(=O)Cn2nc(C(F)F)c3c2C(F)(F)[C@@H]2C[C@H]32)n1 [Compound 117F, 2-((3b-S,4aR)-3-(difluoromethyl)-5,5-difluoro-3b,4,4a,5-tetrahydro-1H-cyclopropa[3,4]cyclopenta[1,2-c]pyrazol-1-yl)-N—((S)-2-(3,5-difluorophenyl)-1-(6-(3-hydroxy-3-methylbut-1-yn-1-yl)-3-(3-((2,2,2-trifluoroethyl)amino)-[1,2,4]triazolo[4,3-a]pyridin-8-yl)pyridin-2-yl)ethyl)acetamide] | 27.8 µM | 93% | 100%
14 | CC(C)(O)C#Cc1ccc(-c2ccc(Cl)c(C(N)=O)c2)c([C@H](Cc2cc(F)cc(F)c2)NC(=O)Cn2nc(C(F)(F)F)c3c2C(F)(F)[C@@H]2C[C@H]32)n1 [Compound 80, 2-chloro-5-(2-((S)-1-(2-((3bS,4aR)-5,5-difluoro-3-(trifluoromethyl)-3b,4,4a,5-tetrahydro-1H-cyclopropa[3,4]cyclopenta[1,2-c]pyrazol-1-yl)acetamido)-2-(3,5-difluorophenyl)ethyl)-6-(3-hydroxy-3-methylbut-1-yn-1-yl)pyridin-3-yl)benzamide] | 8.58 µM | 96% | 100%
